Among the data in patent US20240148821A1, “PHARMACEUTICAL USE OF CYCLIC PEPTIDE COMPOUND” (CHUGAI SEIYAKU KABUSHIKI KAISHA, priority 2021, published 2024) are IC50 values, retold here.

Structures are written as SMILES. pIC50: −log10 of the molar value. Bridge positions count the residues as written; N and C are the ends. Square brackets hold non-standard residues; d marks the D form. Peptide text beside a SMILES is read from it. * marks the point of attachment. NMeAbu(3,3-F2-piperidino) = CN[C@@H](CCN1CCCC(F)(F)C1)C(=O)O; hPhe(3-Cl-4-CF3) = N[C@@H](CCc1ccc(C(F)(F)F)c(Cl)c1)C(=O)O; hPhe(3-F,4-CF3) = N[C@@H](CCc1ccc(C(F)(F)F)c(F)c1)C(=O)O; hPhe(4-CF3) = N[C@@H](CCc1ccc(C(F)(F)F)cc1)C(=O)O; NMePhe(4-Cl) = CN[C@@H](Cc1ccc(Cl)cc1)C(=O)O; NMePhe(2-Me) = CN[C@@H](Cc1ccccc1C)C(=O)O; NMeAla(cPent) = CN[C@@H](CC1CCCC1)C(=O)O; Phe(3-I) = N[C@@H](Cc1cccc(I)c1)C(=O)O; dαMeGly(allyl) = C=CC[C@@](C)(N)C(=O)O; Phe(2-F) = N[C@@H](Cc1ccccc1F)C(=O)O; NMeY = CN[C@@H](Cc1ccc(O)cc1)C(=O)O; NMeCha = CN[C@@H](CC1CCCCC1)C(=O)O; NMeChg = CN[C@H](C(=O)O)C1CCCCC1; NMeD = CN[C@@H](CC(=O)O)C(=O)O; NMeL = CN[C@@H](CC(C)C)C(=O)O; NMeV = CN[C@H](C(=O)O)C(C)C; d(β3hA) = C[C@@H](N)CC(=O)O; Pip = O=C(O)[C@@H]1CCCCN1; NMeA = CN[C@@H](C)C(=O)O; NMeAib = CNC(C)(C)C(=O)O; Nle = CCCC[C@H](N)C(=O)O; Piperidide = C1CCN(*)CC1; Ac5c = NC1(C(=O)O)CCCC1; Aze = O=C(O)[C@@H]1CCN1; Aib = CC(C)(N)C(=O)O; Sar = CNCC(=O)O Bounds are passed on as bounds.

The test system of the experiment is Human pancreatic cancer cell line AsPC-1 (G12D mutation Kras). Kind of experiment: AsPC-1 cell growth inhibition (AsPC-1 CGI). It counts as cell-based. As to conditions: read-out: AsPC-1 cell growth inhibition, 50% growth inhibitory concentration (IC50 value); 96 hours, CellTiter-Glo, values classified in ranges.
Method: Test compounds were serially dilated with dimethyl sulfoxide, and 200 nL was then dispensed to a U-bottom 96-well plate using Labcyte Echo. […] The cell suspension was dispensed to a. plate containing a test compound at 100 μL per well and incubated at 37° C. in a 5% carbon dioxide gas incubator. 96 hours later, 80 μL of CellTiter-Glo (Promega) was added to each well and fluorescence was measured.
In the case of `CC[C@H](C)[C@@H]1NC(=O)[C@H](C)N(C)C(=O)C[C@@H](C)NC(=O)[C@H](CC(C)C)N(C)C(=O)C(C)(C)NC(=O)[C@@H]2CCCN2C(=O)[C@H](CCc2ccc(C(F)(F)F)cc2)NC(=O)CN(C)C(=O)[C@H](Cc2ccc(Cl)cc2)N(C)C(=O)CN(C)C(=O)CN(C)C1=O` [Compound 664] (cyclo([Aib][NMeL][d(β3hA)][NMeA]I[Sar][Sar][NMePhe(4-Cl)][Sar][hPhe(4-CF3)]P)), the pIC50 is under 6.30.

Consider `C=CC[C@@]1(C)NC(=O)[C@@H]2CCCN2C(=O)[C@H](CCc2ccc(C(F)(F)F)c(Cl)c2)NC(=O)CN(C)C(=O)[C@H](CC2CCCCC2)N(C)C(=O)CN(C)C(=O)CN(C)C(=O)[C@H]([C@@H](C)CC)NC(=O)[C@H](CC(C)C)N(C)C(=O)C[C@@H](C)NC(=O)[C@H](C(C)C)N(C)C1=O` [Compound 665] (cyclo(I[Sar][Sar][NMeCha][Sar][hPhe(3-Cl-4-CF3)]P[dαMeGly(allyl)][NMeV][d(β3hA)][NMeL])), for which the pIC50 was under 6.30.

With `CC[C@H](C)[C@@H]1NC(=O)[C@H](C)N(C)C(=O)C[C@@H](C)NC(=O)[C@H](C(C)C)N(C)C(=O)C2(CCCC2)NC(=O)[C@@H]2CCCN2C(=O)[C@H](CCc2ccc(C(F)(F)F)c(Cl)c2)NC(=O)[C@H]2CCCN2C(=O)[C@H](CC2CCCCC2)N(C)C(=O)[C@@H]2CCCN2C(=O)CN(C)C1=O` [Compound 666] (cyclo([Ac5c][NMeV][d(β3hA)][NMeA]I[Sar]P[NMeCha][dP][hPhe(3-Cl-4-CF3)]P)), the pIC50 was under 6.30.

With `CC[C@H](C)[C@@H]1NC(=O)[C@@H]2CCCCN2C(=O)C[C@@H](C(=O)N2CCCCC2)N(C)C(=O)[C@H](C(C)C)N(C)C(=O)C2(CCCC2)NC(=O)[C@@H]2CCCN2C(=O)[C@H](CCc2ccc(C(F)(F)F)c(F)c2)NC(=O)CN(C)C(=O)[C@H](CC2CCCCC2)N(C)C(=O)CN(C)C(=O)CN(C)C1=O` [Compound 670] ([Pip]I[Sar][Sar][NMeCha][Sar][hPhe(3-F,4-CF3)]P[Ac5c][NMeV][NMeD]-Piperidide; lactam N-11), the pIC50 was under 6.30.

As for `CCCC[C@@H]1NC(=O)[C@H](Cc2ccccc2F)NC(=O)CN(C)C(=O)[C@H](Cc2ccc(OC)cc2)N(C)C(=O)CN(C)C(=O)CN(C)C(=O)[C@H]([C@@H](C)CC)NC(=O)[C@H](CC(C)C)N(C)C(=O)C[C@@H](C(=O)N2CCCCC2)N(C)C(=O)[C@H](CC(C)C)NC(=O)[C@H](Cc2ccc(OC)cc2)N(C)C1=O` [Compound 681] ([NMeL]I[Sar][Sar][NMeY](Me)[Sar][Phe(2-F)][Nle][NMeY](Me)L[NMeD]-Piperidide; lactam N-11), the pIC50 was under 6.30.

Turning to `CC[C@H](C)[C@@H]1NC(=O)[C@H](C)N(C)C(=O)C[C@@H](C(=O)N2CCCCC2)N(C)C(=O)[C@H](C(C)C)N(C)C(=O)C2(CCCC2)NC(=O)[C@H](CCN2CCCC(F)(F)C2)N(C)C(=O)[C@H](CCc2ccc(C(F)(F)F)c(Cl)c2)NC(=O)CN(C)C(=O)[C@H](CC2CCCCC2)N(C)C(=O)[C@@H]2CCN2C(=O)[C@H](C)N(C)C1=O` [Compound 682] ([NMeA]I[NMeA][Aze][NMeCha][Sar][hPhe(3-Cl-4-CF3)][NMeAbu(3,3-F2-piperidino)][Ac5c][NMeV][NMeD]-Piperidide; lactam N-11), the pIC50 is under 6.30.

As for `CC[C@H](C)[C@@H]1NC(=O)[C@H](CC(C)C)N(C)C(=O)C[C@@H](C(=O)N2CCCCC2)N(C)C(=O)[C@H](C2CCCCC2)N(C)C(=O)C2(CCCC2)NC(=O)[C@H](CC(=O)O)N(C)C(=O)[C@H](CCc2ccc(C(F)(F)F)c(Cl)c2)NC(=O)CN(C)C(=O)[C@H](CC2CCCCC2)N(C)C(=O)CN(C)C(=O)CN(C)C1=O` [Compound 688] ([NMeL]I[Sar][Sar][NMeCha][Sar][hPhe(3-Cl-4-CF3)][NMeD][Ac5c][NMeChg][NMeD]-Piperidide; lactam N-11), the pIC50 was under 6.30.

Take `CCCC[C@@H]1NC(=O)[C@H](CCc2ccc(C(F)(F)F)c(Cl)c2)NC(=O)CN(C)C(=O)[C@H](CC2CCCC2)N(C)C(=O)[C@@H]2CCN2C(=O)[C@H](C)N(C)C(=O)[C@H]([C@@H](C)CC)NC(=O)[C@H](CC(C)C)N(C)C(=O)C[C@@H](C(=O)N2CCCCC2)N(C)C(=O)[C@H](CC(C)C)NC(=O)C(C)(C)N(C)C1=O` [Compound 691] ([NMeL]I[NMeA][Aze][NMeAla(cPent)][Sar][hPhe(3-Cl-4-CF3)][Nle][NMeAib]L[NMeD]-Piperidide; lactam N-11): the pIC50 is under 6.30.

In the case of `CCCC[C@@H]1NC(=O)[C@H](Cc2cccc(I)c2)NC(=O)CN(C)C(=O)[C@H](Cc2ccc(Cl)cc2)N(C)C(=O)CN(C)C(=O)CN(C)C(=O)[C@H]([C@@H](C)CC)NC(=O)[C@H](CC(C)C)N(C)C(=O)C[C@@H](C(=O)N2CCCCC2)N(C)C(=O)[C@H](CC(C)C)NC(=O)[C@H](Cc2ccccc2C)N(C)C1=O` [Compound 696] ([NMeL]I[Sar][Sar][NMePhe(4-Cl)][Sar][Phe(3-I)][Nle][NMePhe(2-Me)]L[NMeD]-Piperidide; lactam N-11), the pIC50 was under 6.30.

In the case of `CC[C@H](C)[C@@H]1NC(=O)[C@H](C)N(C)C(=O)C[C@@H](C)NC(=O)[C@H](C(C)C)N(C)C(=O)C2(CCCC2)NC(=O)[C@@H]2CCCN2C(=O)[C@H](CCc2ccc(C(F)(F)F)c(Cl)c2)NC(=O)CN(C)C(=O)[C@H](CC2CCCCC2)N(C)C(=O)CN(C)C(=O)CN(C)C1=O` [Compound 697] (cyclo([Ac5c][NMeV][d(β3hA)][NMeA]I[Sar][Sar][NMeCha][Sar][hPhe(3-Cl-4-CF3)]P)), the pIC50 is under 6.30.
